Laboratory results: patent US8071613B2, “Anti-constipation composition” (Sucampo AG, priority 2000, dated 2011)

Key:
[1] = Ratio of mono-cyclic/bi-cyclic structure by NMR measurement; type: physicochemical; conditions: NMR measurement in CDCl3 solution
Excerpt: It has been discovered that in the absence of water, compounds represented by Formula (I) exist predominantly in the form of the bi-cyclic compound. In aqueous media, it is believed that hydrogen bonding occurs between, for example, the ketone position at the C-15 position, thereby hindering bi-cyclic ring formation. In addition, it is believed that the halogen atom(s) at the C-16 position promote bi-cyclic ring formation. The mono-cyclic/bi-cyclic structures, for example, may be present in a ratio of 1:6 in D2O; 1:10 in CD3OD-D2O and 4:96 in CDCl3. Accordingly, a preferable embodiment of the present invention is the composition in which the bi-cyclic form is present in ratio of bi -cyclic/mono-cyclic of least 1:1, and preferably 20:1, or even greater to substantially all bi-cyclic compound; 100% bi-cyclic compound is within this invention.
The biological activity of compositions due to the ratios of mono-cyclic/bi-cyclic structures when Z of general formula (I) is an oxygen atom, and a ketone is present at the C-9 position of the present invention can be seen from the following examples.

intraintestinal content = test: Enteropooling test; type: in vivo; conditions: dose that raises the intraintestinal content by 50%
Excerpt: The enteropooling test employed in the present invention is intended to investigate mainly on the action (ii) and/or (iii), which assesses the effect of the drug on the intraintestinal water pool by measuring the volume of the intraintestinal content. The bi-cyclic-halogenated compounds of the present invention may show extremely great enteropooling effect. However, they hardly or slightly cause contraction of intestines which is one of indexes for assessment of the action (iv). Accordingly, the bi-cyclic-halogenated compounds of the present invention are considered to alleviate constipation by mainly acting on intestinal mucosa directly or indirectly to affect transfer of electrolytes and water from intestinal walls into blood vessels and/or from blood vessels into intestines, resulting in reduced water absorption and/or in increased water secretion through the intestines, increased intraintestinal water pool and promoted transfer of the intraintestinal content. Enteropooling tests and diarrhea tests were conducted. The dose that raise the intraintestinal content by 50% was referred to as ED50. [drawing 31] […]

[2] = Storage stability at 40° C. without solvent (crystal), content by HPLC; type: physicochemical; conditions: crystal (no solvent); for content of compound, initial: hard glass container, 40° C.
Description: (§1) Each of the solutions was placed in a container made of hard glass and stored at 40° C. The time-course content of compound 1 and 2 in the solutions were determined by HPLC method. At the same time, each of compounds 1 and 2 was placed solely (without being dissolved in the solvent) in the container as above, and stored at 40° C. to provide control study.
(1) In the absence of the solvent, the content of the compounds was determined as follows by the HPLC method.
Stored compounds 1 and 2, and standard compounds 1 and 2 were weighed precisely around 0.025 g each, and exactly 5 mL aliquots of internal standard solution were added to the respectively weighed compounds. Test and standard preparations were obtained by adding acetonitrile (liquid chromatograph grade) to give the precise total amount of 10 mL each. Each 10 μL of the test and standard preparations were loaded on liquid chromatograph and determined the content of the compound by internal standard method with one point calibration curve.
(§2) WX: The amount of the compound in the standard preparation (mg)
WT: The amount of compound 1 and 2 in the test preparation.
(§3) QS: Peak area ratio of the compound in the standard preparation to the internal standard.
(§4) QT: Peak area ratio of the compound in the test preparation to the internal standard.
Detector: Ultraviolet absorption spectrophotometer (wavelength 294 nm)
(§5) Column: A stainless tube having about 5 mm of internal diameter and about 25 cm of length, packed with 5 μm octadecylsilyl silica gel for liquid chromatograph
Column temperature: Stable around 35° C.
Mobile phase: Mixed solution of acetonitrile (liquid chromatograph grade)/aqueous sodium acetate (0.01 mol/L)/glacial acetic acid (800:200:1)

[3] = Storage stability at 40° C. dissolved in medium chain fatty acid triglyceride (MCT), content by HPLC; type: physicochemical; conditions: for content of compound, initial / content of compound, 14 days: in MCT (compound 1 0.36 mg/g; compound 2 0.12 mg/g); for content of compound, initial: 40° C.; for content of compound, 14 days: in % (unit assumed)
Description: The following compounds 1 and 2 were dissolved in a medium chain fatty acid triglyceride (MCT=mixture of caprylic acid triglyceride and capric acid triglyceride in a ratio of 85:15) in an amount shown in the table below.
as §1
(2) In the presence of the solvent, the content of the compound was determined as follows by HPLC method.
Based on the value expressed in the above table, an amount of the solution corresponding to 36 μg of compounds 1 and 2 was weighed precisely. Precisely 1.0 mL of an internal standard solution was added, and then ethyl acetate, (liquid chromatograph grade) was added to give a total amount of 10 mL each. Each 0.1 mL of the solution was vacuum concentrated to dryness to give the test preparation.
Each 18 mg of the standard compounds was weighed precisely and admixed with ethyl acetate (liquid chromatograph grade) to give the total amount of exactly 50 mL each. 1.0 mL of the solution and 10.0 mL of the internal standard solution were measured precisely and admixed with ethyl acetate (liquid chromatograph grade) to give a total of 100 mL each. Each 0.1 mL of the solution was vacuum concentrated to dryness to give the standard preparation.
To the test and standard preparations, 0.1 mL of fluorescent labeling reagent and 0.85 mL of fluorescent labeling catalyst were added, respectively, and the mixture was stirred and reacted at room temperature for more than 30 minutes. 0.05 mL aliquots of acetonitrile (liquid chromatograph grade) containing 2% acetic acid were added to the reaction mixtures, respectively, stirred, and then allowed to stand for more than 30 minutes to provide test and standard solutions.
Each 10 μL of the test and standard solution was loaded on liquid chromatograph and determined the content of the respective compounds by internal standard method with one point calibration curve.
as §2, §3, §4
Detector: Fluorescent spectrometer (excitation wavelength 259 nm; fluorescent wavelength 394 nm)
as §5
Column temperature: Stable at around 35° C.
Mobile phase: Mixed solution of acetonitrile (liquid chromatograph grade)/methanol (liquid chromatograph grade)/aqueous ammonium acetate (0.05 mol/L) (4:11:5)

healthy male volunteers = test: Bowel movement after single oral administration to healthy male volunteers; type: in vivo, human
Description: Effect of the Present Invention Dissolved in Medium Chain Fatty Acid Triglyceride on Bowel Movement After Single Oral Administration to Healthy Male Volunteers
3 to 9 healthy male volunteers were treated with a composition containing the following mono-cyclic/bi-cyclic structures (in CDCl3) in a ratio of 4:96.
The test substance (R1 and R2 are F atoms) was dissolved in Panacet 800 (medium chain fatty acid triglyceride manufactured by Nippon Oil & Fat co., Ltd., Amagasaki, Japan) and filled in a capsule (each capsule contains […] of the mixture). Each subject was administered one capsule with 100 mL of water.

[4] = 5 μg single oral capsule in Panacet 800
[5] = 10 μg single oral capsule in Panacet 800
[6] = 20 μg single oral capsule in Panacet 800
[7] = 30 μg single oral capsule in Panacet 800

CCCCCC(=O)CCC1C(O)CC(=O)C1CCCCCCC(=O)O (stereo not shown) [Comparative Example A, reference compound]
Ratio of mono-cyclic/bi-cyclic structure [1]: No signal | Enteropooling activity, ED50 (intraintestinal content): 320 µg/kg

CCCCCC(=O)CCC1C(O)CC(=O)C1CC=CCCCC(=O)OC (stereo not shown) [Comparative Example C, reference compound]
Enteropooling activity, ED50 (intraintestinal content): 220 µg/kg

CCCCC(F)(F)C1(O)CCC2C(CC(=O)C2CCCCCCC(=O)O)O1 (stereo not shown) [Example A]
Enteropooling activity, ED50 (intraintestinal content): 0.6 µg/kg

CCCCC(F)C(=O)CCC1C(O)CC(=O)C1CCCCCCC(=O)O (stereo not shown) [Example B]
Enteropooling activity, ED50 (intraintestinal content): 2 µg/kg

CCCCC(F)(F)C1(O)CCC2C(CC(=O)C2CC=CCCCC(=O)OC)O1 (stereo not shown) [Example C]
Enteropooling activity, ED50 (intraintestinal content): 0.3 µg/kg

CCCCC(F)C(=O)CCC1C(O)CC(=O)C1CC=CCCCC(=O)OC (stereo not shown) [Example D]
Enteropooling activity, ED50 (intraintestinal content): 3 µg/kg

CCCCC(F)(F)C1(O)CC[C@@H]2C(CCCCCCC(=O)O)C(=O)C[C@H]2O1 (stereo partly shown) [compound 1]
content of compound, initial [2]: 100% | content of compound, 7 days ([2]; stored at 40° C., 7 days): 97.2 | content of compound, 14 days ([2]; stored at 40° C.): 94.1% | content of compound, 28 days ([2]; stored at 40° C.): 87.4% | content of compound, 38 days ([3]; in MCT (compound 1 0.36 mg/g), stored at 40° C., 38 days): 102.1 | content of compound, 90 days ([3]; in MCT (compound 1 0.36 mg/g), stored at 40° C., 90 days): 100.9 | content of compound, initial [3]: 100% | content of compound, 14 days ([3]; stored at 40° C.): 101.4

CC[C@H](C)CC(F)(F)C1(O)CC[C@@H]2C(CCCCCCC(=O)O)C(=O)C[C@H]2O1 (stereo partly shown) [compound 2]
content of compound, initial [2]: 100% | content of compound, 6 days ([2]; stored at 40° C., 6 days): 84.5% | content of compound, 14 days ([2]; stored at 40° C.): 75% | content of compound, 28 days ([2]; stored at 40° C.): 53.4% | content of compound, initial [3]: 100% | content of compound, 14 days ([3]; stored at 40° C.): 99.6 | content of compound, 28 days ([3]; in MCT (compound 2 0.12 mg/g), stored at 40° C., 28 days): 98.9% | content of compound, 191 days ([3]; in MCT (compound 2 0.12 mg/g), stored at 40° C., 191 days): 99.6%

CCCCC(F)(F)C1(O)CCC2C(CC(=O)C2CCCCCCC(=O)O)O1 (stereo not shown) [test substance]
Number of Subjects Loose or Diarrhea (healthy male volunteers; [4]): 2/3 | Number of Subjects Normal (healthy male volunteers; [4]): 1/3 | Number of Subjects Loose or Diarrhea (healthy male volunteers; [5]): 2/7 | Number of Subjects Normal (healthy male volunteers; [5]): 5/7 | Number of Subjects Loose or Diarrhea (healthy male volunteers; [6]): 2/3 | Number of Subjects Normal (healthy male volunteers; [6]): 1/3 | Number of Subjects Loose or Diarrhea (healthy male volunteers; [7]): 7/9 | Number of Subjects Normal (healthy male volunteers; [7]): 2/9
